Measured values as given in patent USRE50050E1, “Pyrimidinedione compounds” (MyoKardia, Inc., priority 2013, dated 2024).
Where two headings read alike, the source gives them in different places.

Target: T1, bovine cardiac myosin (Bos taurus, UniProt Q9BE39)
T1 construct: The source of cardiac myosin was from bovine heart in the form of skinned myofibrils; from tissue; host or cells: bovine heart, skinned myofibrils
Test: Myosin inhibition assay (PK/LDH-coupled ATPase, bovine cardiac myofibrils)
Assay type: biochemical

[1] = bovine cardiac myofibrils, calcium giving 75% activation (pCa75), read-out: Biochemical Activity (pCa75)
[2] = pCa75, assay conducted using 0.5 μM myosin, IC50 values below 1.0 μM are approximate, read-out: IC50 (pCa75)
[3] = bovine cardiac myofibrils, calcium giving 50% activation (pCa50), read-out: Biochemical Activity (pCa50)

T1 sequence (Q9BE39 whole entry): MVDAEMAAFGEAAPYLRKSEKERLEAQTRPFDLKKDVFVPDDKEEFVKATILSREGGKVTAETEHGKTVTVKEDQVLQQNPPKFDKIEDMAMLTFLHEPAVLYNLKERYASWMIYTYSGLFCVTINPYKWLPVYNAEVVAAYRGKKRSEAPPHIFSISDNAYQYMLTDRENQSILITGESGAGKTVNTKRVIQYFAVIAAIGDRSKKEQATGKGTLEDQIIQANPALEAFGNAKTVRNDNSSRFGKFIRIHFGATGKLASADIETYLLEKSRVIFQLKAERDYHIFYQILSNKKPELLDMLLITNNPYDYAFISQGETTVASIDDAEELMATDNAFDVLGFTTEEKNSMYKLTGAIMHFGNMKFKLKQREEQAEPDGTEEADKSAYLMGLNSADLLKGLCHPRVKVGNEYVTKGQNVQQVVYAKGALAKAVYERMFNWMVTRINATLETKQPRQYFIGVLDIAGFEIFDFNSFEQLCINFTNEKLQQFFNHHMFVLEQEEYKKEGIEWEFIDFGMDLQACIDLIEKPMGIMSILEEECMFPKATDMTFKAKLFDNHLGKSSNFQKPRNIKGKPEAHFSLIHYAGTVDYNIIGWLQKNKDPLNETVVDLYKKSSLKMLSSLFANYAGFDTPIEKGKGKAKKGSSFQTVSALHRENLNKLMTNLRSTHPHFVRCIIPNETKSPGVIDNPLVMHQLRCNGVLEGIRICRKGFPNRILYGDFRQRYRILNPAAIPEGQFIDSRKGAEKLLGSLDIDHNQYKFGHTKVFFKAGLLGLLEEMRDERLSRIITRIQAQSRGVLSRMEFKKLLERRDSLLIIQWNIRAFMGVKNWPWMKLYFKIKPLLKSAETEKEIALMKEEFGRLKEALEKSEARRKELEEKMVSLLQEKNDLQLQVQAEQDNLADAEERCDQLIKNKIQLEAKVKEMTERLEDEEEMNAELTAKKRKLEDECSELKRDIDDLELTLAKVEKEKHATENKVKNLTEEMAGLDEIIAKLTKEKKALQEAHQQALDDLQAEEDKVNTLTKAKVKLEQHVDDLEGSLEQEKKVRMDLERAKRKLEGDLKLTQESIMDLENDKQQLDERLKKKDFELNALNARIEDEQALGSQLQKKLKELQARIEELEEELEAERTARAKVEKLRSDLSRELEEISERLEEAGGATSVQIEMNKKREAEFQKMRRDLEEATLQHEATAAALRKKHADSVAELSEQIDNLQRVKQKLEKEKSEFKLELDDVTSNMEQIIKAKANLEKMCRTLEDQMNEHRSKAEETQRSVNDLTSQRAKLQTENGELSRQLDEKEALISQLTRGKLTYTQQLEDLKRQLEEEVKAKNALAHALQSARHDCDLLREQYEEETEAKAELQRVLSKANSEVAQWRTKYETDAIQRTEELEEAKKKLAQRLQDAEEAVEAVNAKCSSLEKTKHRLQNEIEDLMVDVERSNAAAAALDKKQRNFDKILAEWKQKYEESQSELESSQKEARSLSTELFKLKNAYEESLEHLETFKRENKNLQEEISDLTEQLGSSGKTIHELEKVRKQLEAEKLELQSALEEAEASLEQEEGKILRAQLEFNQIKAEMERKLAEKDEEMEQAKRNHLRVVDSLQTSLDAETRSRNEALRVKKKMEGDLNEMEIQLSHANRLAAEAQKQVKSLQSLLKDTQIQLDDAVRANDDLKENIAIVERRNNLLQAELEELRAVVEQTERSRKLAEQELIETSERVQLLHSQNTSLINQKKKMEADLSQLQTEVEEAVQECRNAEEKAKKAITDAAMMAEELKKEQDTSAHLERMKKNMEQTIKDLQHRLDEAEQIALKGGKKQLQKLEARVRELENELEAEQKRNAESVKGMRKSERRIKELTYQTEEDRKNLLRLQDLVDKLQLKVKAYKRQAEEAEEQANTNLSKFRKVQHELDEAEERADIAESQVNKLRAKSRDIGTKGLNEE
T1 sequence (P85100 whole entry partner): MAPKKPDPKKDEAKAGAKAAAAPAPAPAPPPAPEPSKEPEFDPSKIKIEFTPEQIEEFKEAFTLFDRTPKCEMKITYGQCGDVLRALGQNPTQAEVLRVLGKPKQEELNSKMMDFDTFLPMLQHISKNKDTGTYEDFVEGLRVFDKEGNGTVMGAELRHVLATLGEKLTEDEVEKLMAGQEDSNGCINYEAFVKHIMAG
T1 sequence (Q3SZE5 whole entry partner): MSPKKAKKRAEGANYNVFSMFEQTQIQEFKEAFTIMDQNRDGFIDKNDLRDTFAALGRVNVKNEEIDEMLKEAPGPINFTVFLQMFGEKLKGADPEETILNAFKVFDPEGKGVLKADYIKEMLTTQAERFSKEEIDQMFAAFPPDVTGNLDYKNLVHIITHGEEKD

IC50 [1] | Structure (SMILES) | other results
< 1000 nM | CC(C)n1c(=O)[nH]c(N[C@@H](C)c2ccccc2)c(Br)c1=O [Compound 3, (S)-5-Bromo-3-isopropyl-6-((1-phenylethyl)amino)pyrimidine-2,4(1H,3H)-dione] | –
< 1000 nM | CC(C)n1c(=O)[nH]c(N[C@@H](C)c2cccc(Cl)c2)c(F)c1=O [Compound 4, (S)-6-((1-(3-Chlorophenyl)ethyl)amino)-5-fluoro-3-isopropylpyrimidine-2,4(1H,3H)-dione] | –
< 1000 nM | CC(C)n1c(=O)cc(N[C@@H](C)c2cc(F)cc(F)c2)[nH]c1=O [Compound 5, (S)-6-((1-(3,5-Difluorophenyl)ethyl)amino)-3-isopropylpyrimidine-2,4(1H,3H)-dione] | –
< 1000 nM | CC(C)n1c(=O)cc(N[C@H](c2ccccc2)C2CC2)[nH]c1=O [Compound 6, (S)-6-((Cyclopropyl(phenyl)methyl)amino)-3-isopropylpyrimidine-2,4(1H,3H)-dione] | –
< 1000 nM | COc1cccc([C@@H](Nc2cc(=O)n(C(C)C)c(=O)[nH]2)C2CC2)c1 [Compound 7, (S)-6-((cyclopropyl(3-methoxyphenyl)methyl)amino)-3-isopropylpyrimidine-2,4(1H,3H)-dione] | –
< 1000 nM | CC(C)n1c(=O)cc(N[C@H](c2ccccc2)C2CCC2)[nH]c1=O [Compound 8, (S)-6-((Cyclobutyl(phenyl)methyl)amino)-3-isopropylpyrimidine-2,4(1H,3H)-dione] | –
< 1000 nM | C[C@H](Nc1cc(=O)n(C2CCOCC2)c(=O)[nH]1)c1ccccc1 [Compound 9, (S)-6-((1-phenylethyl)amino)-3-(tetrahydro-2H-pyran-4-yl)pyrimidine-2,4(1H,3H)-dione] | –
< 1000 nM | COc1cccc([C@H](C)Nc2cc(=O)n(C3CCOCC3)c(=O)[nH]2)c1 [Compound 10, (S)-6-((1-(3-methoxyphenyl)ethyl)amino)-3-(tetrahydro-2H-pyran-4-yl)pyrimidine-2,4(1H,3H)-dione] | –
1000 to 15000 nM | C[C@H](Nc1cc(=O)n(C2CCOC2)c(=O)[nH]1)c1ccccc1 (stereo partly drawn) [Compound 11, 6-(((S)-1-phenylethyl)amino)-3-(tetrahydrofuran-3-yl)pyrimidine-2,4(1H,3H)-dione] | –
< 1000 nM | COC(=O)N1CCC(n2c(=O)cc(N[C@@H](C)c3ccccc3)[nH]c2=O)CC1 [Compound 13, (S)-methyl 4-(2,6-dioxo-4-(1-phenylethylamino)-2,3-dihydropyrimidin-1(6H)-yl)piperidine-1-carboxylate] | –
< 1000 nM | CC[C@@H](C)n1c(=O)cc(N[C@@H](C)c2cccc(OC)c2)[nH]c1=O [Compound 14, 3-(R)-sec-butyl-6-((S)-1-(3-methoxyphenyl)ethylamino)pyrimidine-2,4(1H,3H)-dione] | –
< 1000 nM | C[C@H](Nc1cc(=O)n(-c2cccnc2)c(=O)[nH]1)c1ccccc1 [Compound 15, (S)-6-(1-phenylethylamino)-3-(pyridin-3-yl)pyrimidine-2,4(1H,3H)-dione] | –
1000 to 15000 nM | C[C@H](Nc1cc(=O)n(-c2ccon2)c(=O)[nH]1)c1ccccc1 [Compound 16, (S)-3-(Isoxazol-3-yl)-6-(1-phenylethylamino)pyrimidine-2,4(1H,3H)-dione] | –
< 1000 nM | CC(C)n1c(=O)cc(N[C@@H](C)c2cccc(-n3cccn3)c2)[nH]c1=O [Compound 17, (S)-6-((1-(3-(1H-pyrazol-1-yl)phenyl)ethyl)amino)-3-isopropylpyrimidine-2,4(1H,3H)-dione] | –
– | COc1cccc([C@@H](C)Nc2cc(=O)n(C(C)C)c(=O)[nH]2)c1 [Compound 20R] | IC50 [2]: 19600 nM
< 1000 nM | COc1cccc([C@H](C)Nc2cc(=O)n(C(C)C)c(=O)[nH]2)c1 [Compound 21] | IC50 [2]: 390 nM
1000 to 15000 nM | COc1ccccc1[C@H](C)Nc1cc(=O)n(C(C)C)c(=O)[nH]1 [Compound 22] | –
< 1000 nM | CC[C@H](Nc1cc(=O)n(C(C)C)c(=O)[nH]1)c1ccccc1 [Compound 24] | –
> 15000 nM | Cc1c(N[C@@H](C)c2ccccc2)[nH]c(=O)n(C(C)C)c1=O [Compound 25] | –
< 1000 nM | CC(C)n1c(=O)cc(N[C@@H](C)c2ccccc2F)[nH]c1=O [Compound 26] | –
< 1000 nM | CC(C)n1c(=O)cc(N[C@@H](C)c2cccc(Cl)c2)[nH]c1=O [Compound 28] | –
< 1000 nM | COC[C@H](Nc1cc(=O)n(C(C)C)c(=O)[nH]1)c1ccccc1 [Compound 29] | –
< 1000 nM | CC(C)n1c(=O)cc(N[C@@H](C)c2ccc(F)cc2)[nH]c1=O [Compound 30] | –
< 1000 nM | CC[C@H](Nc1[nH]c(=O)n(C(C)C)c(=O)c1F)c1ccccc1 [Compound 31] | –
< 1000 nM | CC(C)n1c(=O)[nH]c(N[C@@H](C)c2cccc(F)c2)c(F)c1=O [Compound 32] | –
< 1000 nM | COc1cccc([C@H](C)Nc2[nH]c(=O)n(C(C)C)c(=O)c2F)c1 [Compound 33] | –
< 1000 nM | CC(C)n1c(=O)cc(N[C@@H](C)c2cc(F)ccc2F)[nH]c1=O [Compound 34] | –

IC50 [1] | Structure (SMILES) | other results
< 1000 nM | CC(C)n1c(=O)cc(N[C@@H](C)c2cccc(Br)c2)[nH]c1=O [Compound 35] | IC50 [3]: < 1000 nM
– | CC[C@H](Nc1cc(=O)n(CC)c(=O)[nH]1)c1ccccc1 [Compound 36] | IC50 [3]: 1000 to 15000 nM
1000 to 15000 nM | C[C@H](Nc1cc(=O)n(C2CC2)c(=O)[nH]1)c1ccccc1 [Compound 37] | –
< 1000 nM | C[C@H](Nc1cc(=O)n(-c2ccccn2)c(=O)[nH]1)c1ccccc1 [Compound 38] | IC50 [3]: < 1000 nM
< 1000 nM | C[C@H](Nc1cc(=O)n(-c2ccn(C)n2)c(=O)[nH]1)c1ccccc1 [Compound 39] | –
< 1000 nM | C[C@H](Nc1cc(=O)n(-c2ccno2)c(=O)[nH]1)c1ccccc1 [Compound 40] | –
< 1000 nM | CC(C)n1c(=O)cc(N[C@@H](C)c2cccc(-n3cncn3)c2)[nH]c1=O [Compound 41] | –
< 1000 nM | Cc1nccn1-c1cccc([C@H](C)Nc2cc(=O)n(C(C)C)c(=O)[nH]2)c1 [Compound 42] | –
< 1000 nM | CC(C)n1c(=O)cc(N[C@@H](C)c2cccc(N3CCOC3=O)c2)[nH]c1=O [Compound 43] | –
< 1000 nM | C[C@H](Nc1cc(=O)n(C2CCCCC2)c(=O)[nH]1)c1ccccc1 [Compound 44] | –
1000 to 15000 nM | CCn1c(=O)cc(N[C@@H](C)c2ccccc2)[nH]c1=O [Compound 46] | –
1000 to 15000 nM | C[C@H](Nc1cc(=O)n(C)c(=O)[nH]1)c1ccccc1 [Compound 47] | –
< 1000 nM | Cc1cccc([C@H](C)Nc2cc(=O)n(C(C)C)c(=O)[nH]2)c1 [Compound 50, (S)-3-isopropyl-6-((1-(m-tolyl)ethyl)amino)pyrimidine-2,4(1H,3H)-dione] | –
– | CC(C)n1c(=O)cc(N[C@@H](C)Cc2ccc(F)cc2)[nH]c1=O [Compound 51, (S)-6-((1-(4-fluorophenyl)propan-2-yl)amino)-3-isopropylpyrimidine-2,4(1H,3H)-dione] | IC50: 1000 to 15000 nM
< 1000 nM | CC(C)n1c(=O)cc(N[C@H](c2ccccc2)C(F)(F)F)[nH]c1=O [Compound 52, (R)-3-isopropyl-6-((2,2,2-trifluoro-1-phenylethyl)amino)pyrimidine-2,4(1H,3H)-dione] | –
1000 to 15000 nM | C[C@H](Nc1cc(=O)n([C@H](C)COCc2ccccc2)c(=O)[nH]1)c1ccccc1 [Compound 53, 3-((R)-1-(benzyloxy)propan-2-yl)-6-(((S)-1-phenylethyl)amino)pyrimidine-2,4(1H,3H)-dione] | –
1000 to 15000 nM | C[C@H](Nc1cc(=O)n([C@H](C)CO)c(=O)[nH]1)c1ccccc1 [Compound 54, 3-((R)-1-hydroxypropan-2-yl)-6-(((S)-1-phenylethyl)amino)pyrimidine-2,4(1H,3H)-dione] | IC50 [3]: 1000 to 15000 nM
< 1000 nM | CC(C)n1c(=O)cc(N[C@@H](C)c2cccc(C(F)(F)F)c2)[nH]c1=O [Compound 55, (S)-3-isopropyl-6-((1-(3-(trifluoromethyl)phenyl)ethyl)amino) pyrimidine-2,4(1H,3H)-dione] | –
> 15000 nM | CC(C)n1c(=O)cc(N[C@@H](C)c2ccccc2C#N)[nH]c1=O [Compound 56, (S)-3-isopropyl-6-((1-(2-cyanophenyl)ethyl)amino)pyrimidine-2,4(1H,3H)-dione] | –
– | C[C@H](Nc1cc(=O)n(Cc2ccccc2)c(=O)[nH]1)c1ccccc1 [Compound 57, (S)-3-benzyl-6-((1-phenylethyl)amino)pyrimidine-2,4(1H,3H)-dione] | IC50 [3]: 1000 to 15000 nM
< 1000 nM | C[C@H](Nc1cc(=O)n(-c2c(F)cccc2F)c(=O)[nH]1)c1ccccc1 [Compound 58, (S)-3-(2,6-difluorophenyl)-6-((1-phenylethyl)amino)pyrimidine-2,4(1H,3H)-dione] | –
< 1000 nM | CC(C)n1c(=O)cc(N[C@@H](C)c2c(F)cccc2F)[nH]c1=O [Compound 59, (S)-6-((1-(2,6-difluorophenyl)ethyl)amino)-3-isopropylpyrimidine-2,4(1H,3H)-dione] | IC50 [2]: 450 nM
– | CC(C)n1c(=O)cc(N[C@H](C)c2c(F)cccc2F)[nH]c1=O [Compound 60R, (R)-6-((1-(2,6-difluorophenyl)ethyl)amino)-3-isopropylpyrimidine-2,4(1H,3H)-dione] | IC50 [2]: > 39200 nM
1000 to 15000 nM | CC(C)n1c(=O)cc(N[C@@H](C)Cc2ccncc2)[nH]c1=O [Compound 61, (S)-3-isopropyl-6-((1-(pyridin-4-yl)propan-2-yl)amino)pyrimidine-2,4(1H,3H)-dione] | –
– | CC(C)n1c(=O)cc(N[C@@H](C)c2ccc(OCc3ccccc3)cc2)[nH]c1=O [Compound 62, (S)-6-((1-(4-(benzyloxy)phenyl)ethyl)amino)-3-isopropylpyrimidine-2,4(1H,3H)-dione] | IC50 [3]: < 1000 nM
– | CC(C)n1c(=O)cc(N[C@@H](C)c2ccc(O)cc2)[nH]c1=O [Compound 63, (S)-6-((1-(4-hydroxyphenyl)ethyl)amino)-3-isopropylpyrimidine-2,4(1H,3H)-dione] | IC50 [3]: < 1000 nM
